Test results: the NIST ThermoML archive (doi:10.1021/je060088h)

Details: Liquid, flow method with low res time

CC(O)COC(C)(C)C (stereo unspecified) [1-(1,1-dimethylethoxy)-2-propanol]
Details	Critical pressure [kPa]	Critical temperature [K]	vapor or sublimation pressure [kPa]
–	2720	600.7	–
450.5 K	–	–	200.9
472.9 K	–	–	337.8
510.2 K	–	–	689.5
553.3 K	–	–	1380
592.7 K	–	–	2414
597.5 K	–	–	2586
598.5 K	–	–	2668

CCCCCCCCCCCCS [1-dodecanethiol]
Details	Critical pressure [kPa]	Critical temperature [K]	vapor or sublimation pressure [kPa]
–	1810	733.7	–
544.5 K	–	–	89.98
577.8 K	–	–	178.6
614.7 K	–	–	348.2
659.9 K	–	–	694.3
688.6 K	–	–	1039
712.4 K	–	–	1384
729.8 K	–	–	1726

CSc1ccccc1 [1-phenyl-1-thiaethane]
Details	Critical pressure [kPa]	Critical temperature [K]	vapor or sublimation pressure [kPa]
–	4050	705.9	–
463.7 K	–	–	90.87
492.1 K	–	–	177.3
526.3 K	–	–	354.1
566.1 K	–	–	696.4
613.6 K	–	–	1383
671.1 K	–	–	2765
691.7 K	–	–	3454
699.9 K	–	–	3799
704.3 K	–	–	3964

OCCc1ccccc1 [2-phenylethanol]
Details	Critical pressure [kPa]	Critical temperature [K]	vapor or sublimation pressure [kPa]
–	3990	723.5	–
488.7 K	–	–	91.7
515.5 K	–	–	174.9
547.5 K	–	–	340.6
587.4 K	–	–	692.9
634.4 K	–	–	1382
689.8 K	–	–	2762
711.2 K	–	–	3451
719.2 K	–	–	3793
722.5 K	–	–	3966

C=CCO [2-propenol]
Details	Critical pressure [kPa]	Critical temperature [K]	vapor or sublimation pressure [kPa]
–	5640	547.1	–
438.1 K	–	–	759.8
465.2 K	–	–	1383
498.5 K	–	–	2595
531.5 K	–	–	4482
545.4 K	–	–	5516
546.5 K	–	–	5599

c1ccc2ccccc2c1 [naphthalene]
Details	Critical pressure [kPa]	Critical temperature [K]	vapor or sublimation pressure [kPa]
–	4130	750	–
502.2 K	–	–	128.9
552.2 K	–	–	337.8
646.6 K	–	–	1338
731.8 K	–	–	3445
741.5 K	–	–	3793
745.9 K	–	–	3958

CCCCCCCCCCCCCCCCCCCCCCCCCCCCCC [triacontane]
Details	vapor or sublimation pressure [kPa]
713.5 K	82.32
737.8 K	127.8
761.2 K	190.2
786 K	282.4
809.6 K	414.1
